Assay results as given in ChEMBL document CHEMBL5131378, “Kinases as Potential Therapeutic Targets for Anti-coronaviral Therapy” (J Med Chem, 2022).

Columns and labels:
[1] = test system: Middle East respiratory syndrome-related coronavirus; assay: Antiviral activity against MERS-CoV; type: functional, organism-based
SARS-CoV-2 [2] = type: functional, Severe acute respiratory syndrome coronavirus 2, Vero E6; conditions: time 72 hrs
SARS-CoV-2 [3] = type: functional, organism-based, Vero E6; conditions: Severe acute respiratory syndrome coronavirus 2, Vero C1008, 72 h
[4] = biological target: Replicase polyprotein 1ab (Severe acute respiratory syndrome coronavirus 2, UniProt P0DTD1); assay: Inhibition of SARS-CoV-2 M-protease
SARS-CoV-2 [5] = type: functional, organism-based, Vero E6; conditions: Severe acute respiratory syndrome coronavirus 2, Vero C1008
SARS-CoV-2 [6] = type: functional, organism-based; conditions: Severe acute respiratory syndrome coronavirus 2, A549-ACE2
SARS-CoV = assay: Antiviral activity against SARS-CoV in 24 hrs pretreated primary human liver spheroids assessed as reduction in viral load at 400 to 500 nM measured after 48 hrs; type: functional, Severe acute respiratory syndrome-related coronavirus; set-up: scale not given: the % may be the effect or the level left; conditions: dose 400-500 nM, time 72 hrs
[7] = test system: Middle East respiratory syndrome-related coronavirus; assay: Antiviral activity against MERS-CoV infected in 1 hr pretreated human Huh-7 cells assessed as inhibition of viral growth at 10 uM measured after 48 hrs by plaque reduction assay relative to control; type: functional; conditions: time 49 hrs
SARS-CoV-2 [8] = assay: microbe, parasite or virus in culture; conditions: Severe acute respiratory syndrome coronavirus 2
Murine coronavirus = assay: Antiviral activity against mCoV; type: functional, organism-based
in vitro = conditions: human, Huh-7 cells
[9] = test system: Middle East respiratory syndrome-related coronavirus; assay: microbe, parasite or virus in culture; conditions: Huh-7, 72 h
Human coronavirus 229E = assay: Antiviral activity against hCoV-229e at 4 uM assessed as reduction of viral RNA relative to control; type: functional; set-up: scale not given: the % may be the effect or the level left

Cn1nc(C(C)(C)C)cc1NC(=O)Nc1ccc(Oc2ccncc2)cc1
IC50 [1]: 4.63 µM

CCN1CCN(Cc2ccc(Nc3ncc(F)c(-c4cc(F)c5nc(C)n(C(C)C)c5c4)n3)nc2)CC1 [ABEMACICLIB]
Activity (SARS-CoV-2 [2]): 60% | EC50 (SARS-CoV-2 [3]): 2.16 µM

O=C1Cc2c([nH]c3ccc([N+](=O)[O-])cc23)-c2ccccc2N1 [ALSTERPAULLONE]
IC50 [4]: 1.5 µM

Cc1cccc(/C=N/Nc2cc(N3CCOCC3)nc(OCCc3ccccn3)n2)c1 [APILIMOD]
IC50 (SARS-CoV-2 [5]): < 0.08 µM | IC50 (SARS-CoV-2 [6]): 0.007 µM

CC(C)Cn1ncc2cc(Oc3ccc(F)cc3F)c(C(=O)NCCN(C)C)cc21 [ARRY-797]
IC50 [1]: 0.913 µM

CNS(=O)(=O)Nc1nccc(Cc2c(C)c3ccc(Oc4ncccn4)cc3oc2=O)c1F [AVUTOMETINIB]
IC50 (SARS-CoV-2 [3]): 0.6 µM

CCS(=O)(=O)N1CC(CC#N)(n2cc(-c3ncnc4[nH]ccc34)cn2)C1 [BARICITINIB]
Activity (SARS-CoV): 30%

CCc1cnn2c(NCc3ccc[n+]([O-])c3)cc(N3CCCC[C@H]3CCO)nc12 [DINACICLIB]
IC50 (SARS-CoV-2 [5]): 0.27 µM | IC50 (SARS-CoV-2 [6]): 0.032 µM

CO[C@H]1C[C@@H]2CC[C@@H](C)[C@@](O)(O2)C(=O)C(=O)N2CCCC[C@H]2C(=O)O[C@H]([C@H](C)C[C@@H]2CC[C@@H](OCCO)[C@H](OC)C2)CC(=O)[C@H](C)/C=C(\C)[C@@H](O)[C@@H](OC)C(=O)[C@H](C)C[C@H](C)/C=C/C=C/C=C/1C [EVEROLIMUS]
inhibition at 10 µM [7]: 56%

CCc1nc(C(N)=O)c(Nc2ccc(N3CCC(N4CCN(C)CC4)CC3)c(OC)c2)nc1NC1CCOCC1 [GILTERITINIB]
IC50 [1]: 0.807 µM | IC50 (SARS-CoV-2 [8]): 0.807 µM

CC(C)=CCC[C@](C)(O)[C@H]1CC[C@]2(C)[C@@H]1[C@H](O)C[C@@H]1[C@@]3(C)CC[C@H](O)C(C)(C)[C@@H]3[C@@H](O[C@@H]3O[C@H](CO)[C@@H](O)[C@H](O)[C@H]3O[C@@H]3O[C@H](CO)[C@@H](O)[C@H](O)[C@H]3O)C[C@]12C [GINSENOSIDE RF]
IC50 (Murine coronavirus): 10 µM

O=C1Cc2c([nH]c3ccc(Br)cc23)-c2ccccc2N1 [KENPAULLONE]
IC50 [4]: 1.5 µM

NC(=O)N1CCC(CC(=O)N2CCC([C@H]3c4ncc(Br)cc4CCc4cc(Cl)cc(Br)c43)CC2)CC1 [LONAFARNIB]
IC50 (SARS-CoV-2 [3]): 4.99 µM

CCCCCCCCCCCCCCCCOP(=O)([O-])OCC[N+](C)(C)C [MILTEFOSINE]
inhibition at 10 µM [7]: 28%

COc1ncc(-c2ccc3nccc(-c4ccnnc4)c3c2)cc1NS(=O)(=O)c1ccc(F)cc1F [OMIPALISIB]
IC50 (SARS-CoV-2 [3]): 0.014 µM

C=CC(=O)Nc1cc(Nc2nccc(-c3cn(C)c4ccccc34)n2)c(OC)cc1N(C)CCN(C)C [OSIMERTINIB]
IC50 (SARS-CoV-2 [3]): 3.98 µM

CC(C)(C)Cn1c(N)nc2ccc(-c3[nH]c(C(C)(C)C)nc3-c3ccc(F)cc3)nc21 [RALIMETINIB]
IC50 [1]: 0.873 µM

CN1CCN(CCOc2cc(OC3CCOCC3)c3c(Nc4c(Cl)ccc5c4OCO5)ncnc3c2)CC1 [SARACATINIB]
CC50 (in vitro): > 50 µM | EC50 [9]: 2.9 µM

C[S+]([O-])c1ccc(-c2nc(-c3ccc(F)cc3)c(-c3ccncc3)[nH]2)cc1 (configuration not stated) [SB-203580]
Activity (Human coronavirus 229E): 60%

O=C(O)c1ccc2c(c1)nc(Nc1cccc(Cl)c1)c1ccncc12 [SILMITASERTIB]
IC50 (SARS-CoV-2 [8]): 1.28 µM

CO[C@H]1C[C@@H]2CC[C@@H](C)[C@@](O)(O2)C(=O)C(=O)N2CCCC[C@H]2C(=O)O[C@H]([C@H](C)C[C@@H]2CC[C@@H](O)[C@H](OC)C2)CC(=O)[C@H](C)/C=C(\C)[C@@H](O)[C@@H](OC)C(=O)[C@H](C)C[C@H](C)/C=C/C=C/C=C/1C [SIROLIMUS]
inhibition at 10 µM [7]: 40%

COC[C@H]1OC(=O)c2coc3c2[C@@]1(C)C1=C(C3=O)[C@@H]2CCC(=O)[C@@]2(C)C[C@H]1OC(C)=O [WORTMANNIN]
inhibition at 10 µM [7]: 40%
